≈ marks a conversion by molar mass, not a printed value. Where “and” joins values, the source holds several entries; their conditions need not be identical. Equal entries are not always repeated.
What was measured:
in vitro = in vitro ADME; conditions: human, Caco-2
Description: Caco-2 cell monolayers were used to assess the in vitro absorptive permeability of SCY-078 as a predictor of absorption across the gut following oral delivery. The mean apparent permeability for 5 μM SCY-078 in the apical-to-basolateral direction was 8.9 ± 0.78 ×10^−6 cm/s (89 ± 7.8 nm/s), indicating good oral absorption since in this assay permeability values of >10^−6 cm/s are considered predictive of good absorption after oral administration ([9]).
Caco2 cells (ATCC CRL-2102) were cultured in Dulbecco modified Eagle medium with the dipeptide form of L-glutamine (GlutaMAX), 10% (vol/vol) fetal bovine serum, and 1% (vol/vol) penicillin-streptomycin at 10,000 U/ml in a 75-ml flask at 37°C in a humidified atmosphere of 5% CO2. […] On the day of the assay, the cell monolayers were rinsed with transport medium (Hanks balanced salt solution with 25 mM glucose and 25 mM HEPES [MediaTech Corning, Tewksbury, MA]), and the absorptive permeation of SCY-078 was evaluated by measuring the flux from the apical to the basolateral compartments. […] The apparent permeability coefficient (Papp; cm/s) was calculated as follows: Papp = 1/A·C0 (dQ/dt), where dQ/dt is the rate of drug appearance in the basolateral compartment (μmol/s), C0 is the initial drug concentration in the donor compartment (μM), and A is the surface area of the monolayer (cm^2). […]

in vivo = conditions: female, CD-1, mouse; for AUC(0-inf) / AUC(0-t) / half-life: kidney; for AUC(0-inf) / AUC(0-t) / half-life / Kp: po; for Kp at 12 h / Kp: kidney/plasma; for Kp at 12 h: oral
Description: (§3) Female CD-1 mice (n = 5/sex/time point/group) weighing approximately 25 g were administered SCY-078 by oral gavage either once daily or as multiple twice-per-day (Q12h) treatments, with individual doses ranging between 3 and 100 mg/kg (6 to 150 mg/kg/day). Mice also received a single 1-mg/ml i.v. dose of SCY-078. Plasma specimens were collected prior to dosing and at 0.25, 0.5, 1, 2, 4, 6, 9, 12, 18, 24, 36, 48, and 60 h after the single i.v. dose and at the same time points from 1 h postdose onward following oral dose 13 on day 7 of treatment. On the first day of oral treatment, plasma specimens were collected immediately before each of the two doses and 1, 2, 4, 6, 9, and 12 h postdosing. […] Kidney tissues were collected at 2, 4, 12, 24, 36, 48, and 60 h after oral dose 13 on treatment day 7, blotted dry, and stored at approximately −80°C until analysis.
(§4) On the day of analysis, either treatment-naive (drug-free) kidney tissue or freshly thawed tissue samples from PK studies were weighed and homogenized in 3 volumes of phosphate-buffered saline. The density of kidney tissue used for the determination of volume was assumed to be 1.0 g/ml.
(§5) Whole-kidney tissue samples were homogenized in parallel by means of a Precellys 24 bead mill homogenizer (Bertin Technologies, Montigny le Bretonneux, France) using 2-ml Precellys tubes containing 1.4-mm-diameter ceramic beads (CK14) and a single 15-s cycle of 5,500 rpm. Parallel bead homogenization increased throughput and avoided potential cross-contamination of samples since each sample was wholly contained and homogenized within its own sealed vial with no direct contact between the homogenizing instrument or other samples.
(§6) Mouse plasma (50 μl) or kidney tissue homogenate (50 μl) was treated with 5 volumes of acetonitrile containing 50 ng of deuterium (d9)-labeled SCY-078 internal standard/ml to precipitate proteins. Treated samples were mixed on a 96-well plate shaker for ∼30 min and then centrifuged at approximately 4,000 × g and 15°C for 15 min. Supernatants were transferred to fresh 96-well plates for analysis by LC-MS/MS.

[1] = Biological distribution to kidney tissue after oral delivery; conditions: for Time to which concentrations would remain measurable in kidney: after dose 13, predicted from elimination rate constant
Description: as §3, §4, §5, §6

[2] = In vitro metabolic stability in hepatic microsomes; assay type: in vitro ADME; conditions: for remaining at 0.5 h, 1 µM: read-out: % remaining after 30 min
Description: (§1) The metabolic stability of SCY-078 was assessed after incubation with mouse, rat, dog, and human liver microsomes (Table 2) ([10]). […] The half-lives in rodent, dog, and human liver microsomes were ≥125, ≥29, and ≥42 min, respectively.
(§2) The metabolic stability of SCY-078 was evaluated with male and female mouse, male rat, male and female dog, and mixed-gender human liver microsomes (XenoTech, Lenexa, KS). SCY-078 (1 μM) was incubated with pooled liver microsomes (0.5 mg protein/ml) for 0, 5, 10, 20, and 30 min at 37°C in the presence of NADPH. Aliquots were taken at each sampling time point and extracted with 5 volumes of ice-cold acetonitrile containing the internal standard (d9-SCY-078, 125 ng/ml). Supernatants from the incubation mixtures were analyzed for the parent compound by LC-MS/MS according to the conditions described below. The metabolic competency of microsomal preparations was established using the control compounds 7-ethoxycoumarin, propranolol, and verapamil. The in vitro intrinsic clearance (CLint), the CLint scaled to the in vivo intrinsic clearance (CL′int), and the half-life were determined for SCY-078 incubated with microsomes from each species.

[3] = Immediate treatment murine model of disseminated candidiasis; conditions: DBA/2N, mouse, plasma, po
C. albicans MY1055 = test: as above
[4] = In vitro metabolic stability in hepatic microsomes, rodent summary; assay type: in vitro ADME, mouse and rat
Description: as §1, §2

[5] = test system: C. parapsilosis isolate CP 20519.069; parameters: method as in PMID 25512406; conditions: cited from earlier work
C. albicans CLY724 = test: Single delayed-dose treatment model of disseminated candidiasis; assay type: in vivo, mice; conditions: single dose 16 h after infection, tissue burden 96 h after treatment, regression analysis
[6] = kidney, 12 mg/kg oral, dose 13 day 7
[7] = both sexes, human, pooled liver microsomes, human (mixed) liver microsomes
[8] = pooled liver microsomes, male rat liver microsomes
[9] = Study A, 6.25 mg/kg p.o. BID, day 7
[10] = Study A, 12.5 mg/kg p.o. BID, day 7
[11] = Study A, Efficacious: projected assuming linearity
[12] = Study B, 6.25 mg/kg p.o. BID, day 7
[13] = Study B, 12.5 mg/kg p.o. BID, day 7
[14] = Study B, Efficacious: projected assuming linearity
[15] = Study C, 6.25 mg/kg p.o. BID, day 7

**Q.** Which results are given for `CC(C)[C@@H](C)[C@@]1(C)CC[C@]2(C)[C@H]3CC[C@@H]4[C@@]5(COC[C@@]4(C)[C@@H](OC[C@](C)(N)C(C)(C)C)[C@H](n4ncnc4-c4ccncc4)C5)C3=CC[C@@]2(C)[C@@H]1C(=O)O` [SCY-078, (1S,4aR,6aS,7R,8R,10aR,10bR,12aR,14R,15R)-15-[[(2R)-2-amino-2,3,3-trimethylbutyl]oxy]-8-[(1R)-1,2-dimethylpropyl]-14-[5-(4-pyridinyl)-1H-1,2,4-triazol-1-yl]-1,6,6a,7,8,9,10,10a,10b,11,12,12a-dodecahydro-1,6a,8,10a-tetramethyl-4H-1,4a-propano-2H-phenanthro[1,2-c]pyran-7-carboxylic acid]?
**A.** Papp at 2 h, 5 µM (in vitro): ~8.9 ×10⁻⁶ cm/s; Papp at 2 h, 5 μM (in vitro): 8.9 ± 0.78 ×10⁻⁶ cm/s; AUC(0-inf) (in vivo; 6.25 mg/kg): 198 µg·h/mL; AUC(0-t) (in vivo; 6.25 mg/kg): 118 µg·h/mL; half-life (in vivo; 6.25 mg/kg): 9.2 h; AUC(0-inf) (in vivo; 12 mg/kg): 700 µg·h/mL; AUC(0-t) (in vivo; 12 mg/kg): 346 µg·h/mL; half-life (in vivo; 12 mg/kg): 8.9 h; Kp at 12 h (in vivo; 6.25 mg/kg): 19; Kp at 12 h (in vivo; 12 mg/kg): 25.7; Kp (in vivo; 6.25 mg/kg): 21.5; Kp (in vivo; 12 mg/kg): 23.1; Time to which concentrations would remain measurable in kidney ([1]; 6.25 mg/kg): approximately 100 h; Time to which concentrations would remain measurable in kidney ([1]; 12 mg/kg): ~115 h; AUC0–24 ([1]; kidney, 6.25 mg/kg oral, dose 13 day 7): 195 µg·h/mL; AUC0–24 [1, 6]: 553 µg·h/mL; half-life [1, 6]: 8.6 h; half-life at 1 μM [2, 7]: ≥ 0.7 h; microsomal CLint at 1 μM [2, 7]: 34 µL/min/mg; remaining at 0.5 h, 1 µM ([2]; both sexes, pooled liver microsomes, human (mixed) liver microsomes): 61%; CLint ([2]; human (mixed) liver microsomes): 33 µL/min/mg; remaining at 0.5 h, 1 µM ([2]; male rat liver microsomes): 84%; half-life at 1 μM [2, 8]: 2.08 h; microsomal CLint at 1 μM [2, 8]: 11 µL/min/mg; AUC(0-t) ([3]; 6.25 mg/kg, Plasma AUC0–24, Study A, 6.25 mg/kg p.o. BID, after dose 13 day 7): 6190 ng·h/mL and 8.48 µM·h; AUC(0-t) ([3]; 6.25 mg/kg, Plasma AUC0–24, Study B, 6.25 mg/kg p.o. BID, after dose 13 day 7): 3270 ng·h/mL and 4.48 µM·h; AUC(0-t) ([3]; 6.25 mg/kg, Plasma AUC0–24, Study C, 6.25 mg/kg p.o. BID, after dose 13 day 7): 11000 ng·h/mL and 15.1 µM·h; AUC(0-t) ([3]; 12.5 mg/kg, Plasma AUC0–24, Study A, 12.5 mg/kg p.o. BID, after dose 13 day 7): 19700 ng·h/mL and 27 µM·h; AUC(0-t) ([3]; 12.5 mg/kg, Plasma AUC0–24, Study B, 12.5 mg/kg p.o. BID, after dose 13 day 7): 16200 ng·h/mL and 22.2 µM·h; AUC(0-t) ([3]; Plasma AUC0–24, Study A, Efficacious: projected efficacious exposure assuming linearity): 12900 ng·h/mL and 17.7 µM·h; AUC(0-t) ([3]; Plasma AUC0–24, Study B, Efficacious: projected efficacious exposure assuming linearity): 9710 ng·h/mL and 13.3 µM·h; Kidney tissue burden (C. albicans MY1055; [9]): 2.78 log10 CFU/g of tissue; Reduction from sham treatment (C. albicans MY1055; [9]): 3.69 log10 CFU/g of tissue; % animals sterilized (C. albicans MY1055; Study A, 6.25 mg/kg p.o. BID, day 7, five animals per group): 40%; Kidney tissue burden (C. albicans MY1055; [10]): 2.23 log10 CFU/g of tissue; Reduction from sham treatment (C. albicans MY1055; [10]): 4.24 log10 CFU/g of tissue; % animals sterilized (C. albicans MY1055; Study A, 12.5 mg/kg p.o. BID, day 7, five animals per group): 80%; % animals sterilized (C. albicans MY1055; [11]): 60%; Kidney tissue burden (C. albicans MY1055; [11]): 2.51 log10 CFU/g of tissue; Reduction from sham treatment (C. albicans MY1055; [11]): 4 log10 CFU/g of tissue; Kidney tissue burden (C. albicans MY1055; [12]): 3.52 log10 CFU/g of tissue; Reduction from sham treatment (C. albicans MY1055; [12]): 3.35 log10 CFU/g of tissue; % animals sterilized (C. albicans MY1055; Study B, 6.25 mg/kg p.o. BID, day 7, five animals per group): 0%; Kidney tissue burden (C. albicans MY1055; [13]): 2.2 log10 CFU/g of tissue; Reduction from sham treatment (C. albicans MY1055; [13]): 4.67 log10 CFU/g of tissue; % animals sterilized (C. albicans MY1055; Study B, 12.5 mg/kg p.o. BID, day 7, five animals per group): 100%; % animals sterilized (C. albicans MY1055; [14]): 50%; Kidney tissue burden (C. albicans MY1055; [14]): 2.86 log10 CFU/g of tissue; Reduction from sham treatment (C. albicans MY1055; [14]): 4.01 log10 CFU/g of tissue; Kidney tissue burden (C. albicans MY1055; [15]): 2.61 log10 CFU/g of tissue; Reduction from sham treatment (C. albicans MY1055; [15]): 4.35 log10 CFU/g of tissue; % animals sterilized (C. albicans MY1055; Study C, 6.25 mg/kg p.o. BID, day 7, five animals per group): 60%; Free-drug (f) AUC0–24 (C. albicans MY1055; efficacy target, fraction bound 99.8% in mouse plasma): 0.0224 ± 0.0032 µg·h/mL; Mean therapeutic exposure (plasma AUC0–24) across all models (C. albicans MY1055; mean of immediate-treatment, delayed-single-dose and delayed-fractionated-dose models): 14.3 µM·h; half-life at 1 μM ([4]; both (mouse), male (rat), pooled liver microsomes, rodent liver microsomes): ≥ 2.08 h; CLint scaled at 1 μM ([4]; both (mouse), male (rat), pooled liver microsomes, rodent liver microsomes, read-out: CL′int (CLint scaled to in vivo intrinsic clearance)): < 2.4 mL/h/kg; microsomal CLint at 1 μM ([4]; both (mouse), male (rat), pooled liver microsomes, rodents (mouse and rat) liver microsomes): ≤ 11 µL/min/mg; remaining at 0.5 h, 1 µM ([4]; both sexes, mouse, rat, liver microsomes, rodent microsomes, read-out: % remaining after 30 min): ~85%; MIC [5]: 0.25 µg/mL (≈ 0.342 µM); Dose achieving stasis endpoint (C. albicans CLY724): 9.93 mg/kg

Reference: PMC5365645, “Preclinical Pharmacokinetics and Pharmacodynamic Target of SCY-078, a First-in-Class Orally Active Antifungal Glucan Synthesis Inhibitor, in Murine Models of Disseminated Candidiasis” (Antimicrobial Agents and Chemotherapy, 2017)
